# Results taken from the supplement of paper PMC10307832.
# Key:
# Assay in all cases: relative viability (nuclei count vs DMSO), 5 days (fraction); higher = more cells survive
# QS11 + Alpelisib = compound: C1CC2=C(C1)C=C(C=C2)OC3=NC(=C4C(=N3)N(C=N4)CC5=CC=C(C=C5)C6=CC=CC=C6)N[C@@H](CC7=CC=CC=C7)CO [QS11] + Cc1nc(NC(=O)N2CCC[C@H]2C(N)=O)sc1-c1ccnc(C(C)(C)C(F)(F)F)c1 [Alpelisib] (partner 2 µM)
# Method in brief: (§1)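 A single step with final 0.05% Triton X-100, 1% formaldehyde and 1 ug/ml Hoechst fixed the cells and stained nuclei 5 days after treatment. Lung cancer cell lines in 1536-well plates had been treated by pin tool the day after seeding with one drug alone or a fixed anchor-drug dose plus five library-drug doses (not always all listed) in √10 steps, and nuclei were counted on 4× images. Relative viability is the ratio of nuclei in treated wells to nuclei in vehicle wells, taken as the median of duplicate plates.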
# QS11 + Linsitinib = compound: C1CC2=C(C1)C=C(C=C2)OC3=NC(=C4C(=N3)N(C=N4)CC5=CC=C(C=C5)C6=CC=CC=C6)N[C@@H](CC7=CC=CC=C7)CO [QS11] + C[C@]1(O)C[C@@H](c2nc(-c3ccc4ccc(-c5ccccc5)nc4c3)c3c(N)nccn32)C1 [Linsitinib] (partner 1 µM)
# Method in brief: as §1
# [1] = compound: C[As](C)SC[C@H](NC(=O)CC[C@H](N)C(=O)O)C(=O)NCC(=O)O [Darinaparsin] + N=C(N)NC(=N)NCCc1ccccc1 [Phenformin] (partner 250 µM)
# Method in brief: as §1
# [2] = compound: C[As](C)SC[C@H](NC(=O)CC[C@H](N)C(=O)O)C(=O)NCC(=O)O [Darinaparsin] + CS(=O)(=O)N1CCN(Cc2cc3nc(-c4cccc5[nH]ncc45)nc(N4CCOCC4)c3s2)CC1 [Pictilisib] (partner 1 µM)
# Method in brief: as §1
cell line,measurement,setting,value
LCLC-97TM1,relative viability,QS11 + Alpelisib; first compound 0.08 µM,0.225
same,relative viability,QS11 + Alpelisib; first compound 0.253 µM,0.233
same,relative viability,QS11 + Alpelisib; first compound 0.8 µM,0.201
same,relative viability,QS11 + Alpelisib; first compound 2.53 µM,0.323
same,relative viability,QS11 + Alpelisib; first compound 8 µM,0.299
same,relative viability,QS11 + Linsitinib; first compound 0.08 µM,0.15
same,relative viability,QS11 + Linsitinib; first compound 0.253 µM,0.17
same,relative viability,QS11 + Linsitinib; first compound 0.8 µM,0.233
same,relative viability,QS11 + Linsitinib; first compound 2.53 µM,0.237
same,relative viability,QS11 + Linsitinib; first compound 8 µM,0.293
same,relative viability,[1]; first compound 0.08 µM,0.417
same,relative viability,[1]; first compound 0.8 µM,0.412
same,relative viability,[1]; first compound 2.53 µM,0.444
same,relative viability,[1]; first compound 8 µM,0.302
same,relative viability,[2]; first compound 0.08 µM,0.191
same,relative viability,[2]; first compound 0.8 µM,0.153
same,relative viability,[2]; first compound 2.53 µM,0.15
same,relative viability,[2]; first compound 8 µM,0.178
